Assay results from article PMC4685510, “A Cell Biologist’s Field Guide to Aurora Kinase Inhibitors” (Frontiers in Oncology, 2015).

How the values were obtained:
Assay in all cases: biochemical
Assay type in all cases: biochemical
[1] = target: 363 human kinases (including Aurora A/B/C) (Homo sapiens, UniProt P78362); details: SRPK2; for remaining activity at 0.1 µM: 100 nM; for remaining activity at 0.1 µM / remaining activity at 0.5 µM: read-out: % Enzyme Activity (relative to DMSO controls)
From the text: (§1) However, the Aurora A/B selectivity ratios derived from our in vitro and in vivo data can be compared to prioritize inhibitors.

[2] = target: 363 human kinases (including Aurora A/B/C) (Homo sapiens, UniProt Q00536); details: CDK16/cyclin Y (PCTAIRE), [ATP] 15 µM; for remaining activity at 0.1 µM: 100 nM; for remaining activity at 0.1 µM / remaining activity at 0.5 µM: read-out: % Enzyme Activity (relative to DMSO controls)
363 human kinases (including Aurora A/B/C) (Homo sapiens, UniProt Q00536), sequence (Q00536 whole entry): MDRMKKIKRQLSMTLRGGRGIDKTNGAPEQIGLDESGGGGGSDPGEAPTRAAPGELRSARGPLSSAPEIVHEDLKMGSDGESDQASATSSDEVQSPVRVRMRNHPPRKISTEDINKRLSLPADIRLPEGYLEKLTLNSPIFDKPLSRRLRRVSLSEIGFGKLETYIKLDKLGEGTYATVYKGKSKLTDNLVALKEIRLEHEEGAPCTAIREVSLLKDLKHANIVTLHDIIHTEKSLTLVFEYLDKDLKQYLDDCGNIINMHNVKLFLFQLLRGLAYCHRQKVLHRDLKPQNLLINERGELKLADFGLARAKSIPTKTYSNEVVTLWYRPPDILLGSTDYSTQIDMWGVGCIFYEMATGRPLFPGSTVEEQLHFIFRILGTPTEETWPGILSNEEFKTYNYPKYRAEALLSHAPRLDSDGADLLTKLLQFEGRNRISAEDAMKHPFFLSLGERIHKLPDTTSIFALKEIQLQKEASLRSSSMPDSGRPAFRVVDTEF
From the text: as §1

[3] = target: T1, 363 human kinases (including Aurora A/B/C) (Homo sapiens, UniProt Q8IW41); details: MAPKAPK5/PRAK; for remaining activity at 0.1 µM: 100 nM; for remaining activity at 0.1 µM / remaining activity at 0.5 µM: read-out: % Enzyme Activity (relative to DMSO controls)
T1 sequence (Q8IW41 1-473): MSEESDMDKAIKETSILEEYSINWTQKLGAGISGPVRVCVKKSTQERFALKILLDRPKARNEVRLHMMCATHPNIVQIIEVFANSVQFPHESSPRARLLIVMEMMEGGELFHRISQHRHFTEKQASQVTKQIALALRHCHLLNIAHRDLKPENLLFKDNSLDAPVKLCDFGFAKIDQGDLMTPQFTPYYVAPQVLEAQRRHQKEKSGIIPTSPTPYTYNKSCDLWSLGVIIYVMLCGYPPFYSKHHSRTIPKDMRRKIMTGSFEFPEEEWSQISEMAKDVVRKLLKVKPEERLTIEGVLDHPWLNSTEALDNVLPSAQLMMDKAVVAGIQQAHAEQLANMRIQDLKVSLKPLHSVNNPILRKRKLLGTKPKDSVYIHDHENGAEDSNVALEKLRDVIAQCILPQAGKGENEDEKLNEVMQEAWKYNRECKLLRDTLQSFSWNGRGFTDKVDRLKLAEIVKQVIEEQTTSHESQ
From the text: as §1

[4] = target: T2, 363 human kinases (including Aurora A/B/C) (Homo sapiens, UniProt Q92630); details: DYRK2, [ATP] 5 µM; for remaining activity at 0.1 µM: 100 nM; for remaining activity at 0.1 µM / remaining activity at 0.5 µM: read-out: % Enzyme Activity (relative to DMSO controls)
T2 sequence (Q92630 1-601): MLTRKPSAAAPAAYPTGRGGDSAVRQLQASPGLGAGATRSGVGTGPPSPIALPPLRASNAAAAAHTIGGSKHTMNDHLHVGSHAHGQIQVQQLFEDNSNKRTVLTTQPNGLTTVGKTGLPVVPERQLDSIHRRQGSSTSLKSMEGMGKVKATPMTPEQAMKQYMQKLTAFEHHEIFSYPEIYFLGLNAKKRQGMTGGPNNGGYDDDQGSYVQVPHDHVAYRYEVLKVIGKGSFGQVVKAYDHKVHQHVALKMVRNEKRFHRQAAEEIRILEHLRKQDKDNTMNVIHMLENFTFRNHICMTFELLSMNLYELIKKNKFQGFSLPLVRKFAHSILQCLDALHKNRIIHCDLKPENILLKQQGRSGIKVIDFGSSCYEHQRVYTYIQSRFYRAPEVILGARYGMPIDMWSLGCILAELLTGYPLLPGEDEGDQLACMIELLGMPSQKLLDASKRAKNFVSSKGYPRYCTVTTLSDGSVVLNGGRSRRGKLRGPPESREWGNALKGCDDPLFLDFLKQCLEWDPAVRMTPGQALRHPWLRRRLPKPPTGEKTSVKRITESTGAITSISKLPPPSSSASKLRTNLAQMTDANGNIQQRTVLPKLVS
From the text: as §1

[5] = target: T3, 363 human kinases (including Aurora A/B/C) (Homo sapiens, UniProt Q9UBE8); details: NLK; for remaining activity at 0.1 µM: 100 nM; for remaining activity at 0.1 µM / remaining activity at 0.5 µM: read-out: % Enzyme Activity (relative to DMSO controls)
T3 sequence (Q9UBE8 1-527): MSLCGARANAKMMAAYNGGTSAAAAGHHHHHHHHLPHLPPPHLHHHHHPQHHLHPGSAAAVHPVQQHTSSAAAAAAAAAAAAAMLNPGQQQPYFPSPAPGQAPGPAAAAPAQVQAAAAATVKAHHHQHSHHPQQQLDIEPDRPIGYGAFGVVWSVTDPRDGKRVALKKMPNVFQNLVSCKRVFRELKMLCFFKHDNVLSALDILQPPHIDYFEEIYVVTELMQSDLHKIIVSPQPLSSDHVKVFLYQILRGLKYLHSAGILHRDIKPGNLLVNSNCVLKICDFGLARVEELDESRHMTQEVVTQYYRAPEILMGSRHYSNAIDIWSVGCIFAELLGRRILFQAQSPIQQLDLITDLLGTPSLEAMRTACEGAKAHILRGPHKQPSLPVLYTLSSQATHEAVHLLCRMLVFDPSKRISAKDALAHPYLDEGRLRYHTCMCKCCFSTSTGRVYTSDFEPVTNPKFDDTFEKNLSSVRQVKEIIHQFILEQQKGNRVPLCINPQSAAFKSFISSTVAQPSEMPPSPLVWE
From the text: as §1

[6] = target: T4, 363 human kinases (including Aurora A/B/C) (Homo sapiens, UniProt Q9UF33); details: EPHA6, [ATP] 100 µM; for remaining activity at 0.1 µM: 100 nM; for remaining activity at 0.1 µM / remaining activity at 0.5 µM: read-out: % Enzyme Activity (relative to DMSO controls)
T4 sequence (Q9UF33 23-1036): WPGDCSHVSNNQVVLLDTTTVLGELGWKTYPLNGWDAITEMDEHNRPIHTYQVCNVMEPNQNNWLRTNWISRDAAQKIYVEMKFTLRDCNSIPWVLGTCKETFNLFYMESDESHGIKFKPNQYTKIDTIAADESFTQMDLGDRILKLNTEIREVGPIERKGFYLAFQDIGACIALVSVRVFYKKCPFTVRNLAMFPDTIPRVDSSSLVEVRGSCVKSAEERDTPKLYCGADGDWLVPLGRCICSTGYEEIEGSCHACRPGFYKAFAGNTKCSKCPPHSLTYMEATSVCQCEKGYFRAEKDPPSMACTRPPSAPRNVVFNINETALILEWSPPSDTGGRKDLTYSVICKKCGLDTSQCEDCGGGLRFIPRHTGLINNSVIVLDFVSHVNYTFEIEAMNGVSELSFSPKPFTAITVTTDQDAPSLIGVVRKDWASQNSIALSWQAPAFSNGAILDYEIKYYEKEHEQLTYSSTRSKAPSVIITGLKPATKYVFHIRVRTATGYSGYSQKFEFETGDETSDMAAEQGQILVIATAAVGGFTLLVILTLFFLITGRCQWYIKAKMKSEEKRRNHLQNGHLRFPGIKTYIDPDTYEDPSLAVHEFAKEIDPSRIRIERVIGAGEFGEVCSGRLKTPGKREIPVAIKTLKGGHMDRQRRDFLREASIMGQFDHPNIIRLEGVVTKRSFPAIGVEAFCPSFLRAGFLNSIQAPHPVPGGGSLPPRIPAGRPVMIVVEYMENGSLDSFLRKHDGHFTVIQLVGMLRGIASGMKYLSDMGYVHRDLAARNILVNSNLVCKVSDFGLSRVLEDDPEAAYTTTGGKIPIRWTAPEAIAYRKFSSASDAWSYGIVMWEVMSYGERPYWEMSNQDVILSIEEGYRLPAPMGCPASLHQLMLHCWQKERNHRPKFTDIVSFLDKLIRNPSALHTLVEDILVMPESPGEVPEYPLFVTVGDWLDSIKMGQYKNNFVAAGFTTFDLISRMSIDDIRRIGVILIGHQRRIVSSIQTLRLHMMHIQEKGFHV
From the text: as §1

363 human kinases (including Aurora A/B/C) (Homo sapiens, UniProt P78362), sequence (P78362 whole entry): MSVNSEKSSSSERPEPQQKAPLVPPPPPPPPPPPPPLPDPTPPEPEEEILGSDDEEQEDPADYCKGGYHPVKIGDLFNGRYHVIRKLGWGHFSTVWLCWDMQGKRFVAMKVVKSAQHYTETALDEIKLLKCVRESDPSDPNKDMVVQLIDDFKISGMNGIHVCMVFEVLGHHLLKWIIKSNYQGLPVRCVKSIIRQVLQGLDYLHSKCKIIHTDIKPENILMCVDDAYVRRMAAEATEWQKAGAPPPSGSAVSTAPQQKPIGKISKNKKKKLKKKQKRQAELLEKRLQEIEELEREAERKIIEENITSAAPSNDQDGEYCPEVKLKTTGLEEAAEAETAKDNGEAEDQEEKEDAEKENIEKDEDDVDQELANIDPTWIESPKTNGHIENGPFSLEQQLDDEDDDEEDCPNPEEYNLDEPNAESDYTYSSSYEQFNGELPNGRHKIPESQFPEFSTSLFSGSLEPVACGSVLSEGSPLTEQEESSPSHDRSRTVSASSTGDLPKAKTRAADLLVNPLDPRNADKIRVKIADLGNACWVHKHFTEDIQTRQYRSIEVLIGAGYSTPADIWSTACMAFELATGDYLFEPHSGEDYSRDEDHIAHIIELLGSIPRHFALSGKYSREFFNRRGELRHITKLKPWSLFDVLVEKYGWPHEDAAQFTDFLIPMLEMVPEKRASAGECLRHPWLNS

Compound	remaining activity at 0.1 µM [1] [%]	remaining activity at 0.1 µM [2] [%]	remaining activity at 0.1 µM [3] [%]	remaining activity at 0.1 µM [4] [%]	remaining activity at 0.1 µM [5] [%]	remaining activity at 0.1 µM [6] [%]	remaining activity at 0.5 µM ([1]; 500 nM) [%]	remaining activity at 0.5 µM ([2]; 500 nM) [%]	remaining activity at 0.5 µM ([3]; 500 nM) [%]	remaining activity at 0.5 µM ([4]; 500 nM) [%]	remaining activity at 0.5 µM ([5]; 500 nM) [%]	remaining activity at 0.5 µM ([6]; 500 nM) [%]	% Enzyme Activity (relative to DMSO controls) ([1]; 500 nM) [%]	% Enzyme Activity (relative to DMSO controls) ([2]; 500 nM) [%]	% Enzyme Activity (relative to DMSO controls) ([3]; 500 nM) [%]	% Enzyme Activity (relative to DMSO controls) ([4]; 500 nM) [%]	% Enzyme Activity (relative to DMSO controls) ([5]; 500 nM) [%]	% Enzyme Activity (relative to DMSO controls) ([6]; 500 nM) [%]
CCn1cc(-c2ccnc3[nH]c(-c4cccc(CN(C)C)c4)cc23)c(-c2ccc(NC(=O)N(C)C)cc2)n1 [GSK1070916]	96.5	107	99.4	108	95.7	89.4	–	–	–	–	–	–	–	–	–	–	–	–
O=C(O)[C@]1(Cc2cccc(Nc3nccs3)n2)CC[C@@H](Oc2cccc(Cl)c2F)CC1 [MK-5108]	95.4	83.6	101	82	100	5.77	94.3	98	101	56.2	94.5	1.6	–	–	–	–	–	–
O=C(c1cccc(Cl)c1F)N1CCN(Cc2cccc(Nc3nccs3)n2)CC1 [MK-8745]	–	–	–	–	–	–	99.7	111	103	147	98.5	34.6	98.38	110.95	102.03	138.31	97.25	34.30
